Test results as given in US20110091570A1, “Compositions and Devices for Antisepsis and Anticoagulation” (priority 2008, published 2011).
“And” between values parts separate entries of the source, which are not always exact repeats. Identical values can stand only once.

Legend:
[1] = system: infected injuries; conditions: applied intravenously [Ref. 1]; cited from earlier work
[2] = system: citrate blood; assay: Prothrombin time (PT), Thromborel S test; assay type: biochemical, human; conditions: Example 7, 0.25 IE heparin
Experimental: (§1) Whole blood was taken from volunteers and enriched with trisodium citrate (0.3 mL of a 0.106 molar solution per 3 mL whole blood) (S-Monovette®, Sarstedt, Nümbrecht, Germany). Routine coagulation tests were performed on the following samples:
(§2) The following commercial coagulation tests were performed according to the prescription of the manufacturer: prothrombin time (PT) was determined using Thromborel® S test (Dade Behring GmbH, Marburg, Germany); activated partial thromboplastin time (aPTT) was determined using Pathromtin* SL test (Dade Behring GmbH, Marburg, Germany); and thrombin time (TT) was determined using BC Thrombin Reagent test (Dade Behring GmbH, Marburg, Germany).
(§3) Whole blood was taken from a single volunteer and enriched with trisodium citrate (0.3 mL of a 0.106 molar solution per 3 mL whole blood) (S-Monovette®, Sarstedt, Nümbrecht, Germany). Portions of 1.8 mL citrate blood were mixed with 0.2 mL NCT in 0.9% saline. The following final (after dilution in blood) NCT concentrations were tested separately: 1% (55 mM); 0.5% (27.5 mM); 0.25% (13.75 mM); 0.1% (5.5 mM); 0.05% (2.75 mM); 0.025% (1.375 mM); and 0.01% (0.55 mM). A control without NCT was performed in parallel. The following commercial coagulation tests were performed according to the prescription of the manufacturer: prothrombin time (PT) was determined using Thromborel® S test (Dade Behring GmbH, Marburg, Germany), activated partial thromboplastin time (aPTT) was determined using Pathromtin* SL test (Dade Behring GmbH, Marburg, Germany); thrombin time (TT) was determined using BC Thrombin Reagent test (Dade Behring GmbH, Marburg, Germany); and fibrinogen was determined using Multifibren* U test (Dade Behring GmbH, Marburg, Germany).
(§4) Whole blood was taken from 11 volunteers and enriched with trisodium citrate (0.3 mL of a 0.106 molar solution per 3 mL whole blood) (S-Monovette®, Sarstedt, Nümbrecht, Germany). Commercial coagulation tests (as described in Example 6) were performed with the following samples: […]

[3] = system: citrate blood; assay: Activated partial thromboplastin time (aPTT), Pathromtin SL test; assay type: biochemical, human
Experimental: as §1, §2, §3, §4

[4] = system: citrate blood; assay: Thrombin time (TT), BC Thrombin Reagent test; assay type: biochemical, human; conditions: Example 7, 0.25 IE heparin
Experimental: as §1, §2, §3, §4

[5] = biological target: T1, Fibrinogen (Homo sapiens, UniProt P02671+P02675+P02679); assay: Fibrinogen, Multifibren U test; assay type: biochemical; conditions: Example 7, 0.25 IE heparin
T1 construct: from tissue; host or cells: citrated whole blood of volunteers
T1 sequence (P02671 20-629 limits assumed): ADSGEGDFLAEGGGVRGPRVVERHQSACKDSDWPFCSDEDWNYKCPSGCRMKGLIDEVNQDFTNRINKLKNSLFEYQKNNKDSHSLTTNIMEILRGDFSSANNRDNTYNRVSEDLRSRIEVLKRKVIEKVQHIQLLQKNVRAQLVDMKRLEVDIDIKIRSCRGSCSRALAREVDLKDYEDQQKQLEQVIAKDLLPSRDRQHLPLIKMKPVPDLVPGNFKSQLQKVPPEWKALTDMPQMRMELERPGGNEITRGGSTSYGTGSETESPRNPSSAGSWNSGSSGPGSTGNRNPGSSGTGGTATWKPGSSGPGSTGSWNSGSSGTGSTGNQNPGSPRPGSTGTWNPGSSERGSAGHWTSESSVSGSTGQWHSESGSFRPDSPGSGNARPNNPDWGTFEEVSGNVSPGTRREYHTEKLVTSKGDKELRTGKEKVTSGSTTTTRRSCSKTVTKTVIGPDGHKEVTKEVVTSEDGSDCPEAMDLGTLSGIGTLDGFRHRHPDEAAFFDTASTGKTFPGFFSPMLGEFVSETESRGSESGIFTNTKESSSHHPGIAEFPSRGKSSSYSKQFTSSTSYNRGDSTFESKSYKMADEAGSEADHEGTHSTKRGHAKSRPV
T1 sequence (P02675 31-491): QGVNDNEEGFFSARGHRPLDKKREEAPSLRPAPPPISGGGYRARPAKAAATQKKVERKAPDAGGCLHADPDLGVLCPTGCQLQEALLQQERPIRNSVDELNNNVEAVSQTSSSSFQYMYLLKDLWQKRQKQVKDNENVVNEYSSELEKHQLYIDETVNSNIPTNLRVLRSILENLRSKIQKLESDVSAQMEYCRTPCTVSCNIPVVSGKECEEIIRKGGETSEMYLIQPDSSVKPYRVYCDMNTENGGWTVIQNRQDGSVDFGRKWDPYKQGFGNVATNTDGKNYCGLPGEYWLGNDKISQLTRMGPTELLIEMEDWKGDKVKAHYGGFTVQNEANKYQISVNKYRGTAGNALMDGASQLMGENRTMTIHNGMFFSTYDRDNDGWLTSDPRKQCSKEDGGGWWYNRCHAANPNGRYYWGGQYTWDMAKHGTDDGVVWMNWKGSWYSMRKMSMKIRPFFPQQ
T1 sequence (P02679 27-453): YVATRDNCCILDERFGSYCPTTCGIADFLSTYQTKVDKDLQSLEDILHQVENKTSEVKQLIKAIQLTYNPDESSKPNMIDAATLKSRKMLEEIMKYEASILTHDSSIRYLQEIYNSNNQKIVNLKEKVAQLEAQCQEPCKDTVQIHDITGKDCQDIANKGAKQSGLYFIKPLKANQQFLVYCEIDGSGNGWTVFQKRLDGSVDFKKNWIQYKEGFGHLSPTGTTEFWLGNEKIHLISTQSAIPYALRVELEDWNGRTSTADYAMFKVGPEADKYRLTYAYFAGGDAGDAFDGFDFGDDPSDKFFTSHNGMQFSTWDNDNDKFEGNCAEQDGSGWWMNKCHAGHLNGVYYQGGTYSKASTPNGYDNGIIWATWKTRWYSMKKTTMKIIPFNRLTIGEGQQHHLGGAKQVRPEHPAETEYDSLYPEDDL
Experimental: as §3, §4

[6] = system: citrate blood; assay: International normalized ratio (INR); assay type: biochemical, human; conditions: Example 7, 0.25 IE heparin
Experimental: as §4

[7] = system: Antithrombin III; assay: Antithrombin III in citrate blood; assay type: biochemical, human; conditions: Example 7, 0.25 IE heparin
Experimental: as §4

[8] = system: D-Dimer; assay: D-Dimer in citrate blood; assay type: biochemical, human; conditions: Example 7, 0.25 IE heparin
Experimental: as §4

Cc1ccc(S(=O)(=O)[N-]Cl)cc1.[Na+] [chloramine T]
side effects of intravenous application [1]: severe side effects such as pericardial and lung edema

heparin [reference compound]
Prothrombin time (PT) ([2]; individual subjects 1-11): 66% and 58% and 89% (2×) and 62% and 74% and 54% and 69% and 78% and 68% and 72% | Prothrombin time (PT), mean value ([2]; mean of 11 subjects): 70.8% | activated partial thromboplastin time ([3]; Example 5, citrate blood plus 0.25 IE heparin, increased from 36): 56 s | Activated partial thromboplastin time (aPTT) ([3]; Example 7, 0.25 IE heparin, individual subjects 1-11): 283 s and 187 s and 135 s and 177 s and 375 s and 300 s and 400 s and 216 s and 284 s and 195 s and 169 s | Activated partial thromboplastin time (aPTT), mean value ([3]; Example 7, 0.25 IE heparin, mean of 11 subjects): 247.4 s | Thrombin time (TT) ([4]; individual subjects): 400 s | Thrombin time (TT), mean value ([4]; mean of 11 subjects): 400.0 s | Fibrinogen ([5]; individual subjects 1-11): 214 mg/dL and 155 mg/dL and 313 mg/dL and 153 mg/dL and 234 mg/dL and 236 mg/dL and 379 mg/dL and 309 mg/dL and 259 mg/dL and 283 mg/dL and 249 mg/dL | Fibrinogen, mean value ([5]; mean of 11 subjects): 253.1 mg/dL | International normalized ratio (INR) ([6]; individual subjects 1-11): 1.2 (6×) and 1.3 (2×) and 1.1 (2×) and 1.4 | International normalized ratio (INR), mean value ([6]; mean of 11 subjects): 1.2 | Antithrombin III ([7]; individual subjects 1-11): 93% and 79% and 99% and 83% (2×) and 81% (2×) and 88% and 113% and 75% and 94% | Antithrombin III, mean value ([7]; mean of 11 subjects): 88.1% | D-Dimer ([8]; individual subjects 1-11): 217 µg/L and 199 µg/L and 353 µg/L and 146 µg/L and 76 µg/L and 183 µg/L and 285 µg/L and 159 µg/L and 150 µg/L and 203 µg/L and 157 µg/L | D-Dimer, mean value ([8]; mean of 11 subjects): 193.5 µg/L
